Tests used:
[1] = tested on: Zucker diabetic fatty rats (ZDF, fa/fa); test: Metabolic data of ZDF rats treated with LR-90 or LR-102 (Example 2); assay type: in vivo, rat; conditions: ZDF rats at 40 weeks of age, Mean ± SEM
Description: The present Example presents the results of an investigation of the effects of LR-90, an inhibitor of AGE/ALE formation, in male Zucker diabetic fatty rats (ZDF, fa/fa) fed with Purina 5008 diet until 40 weeks of age, and their hetorozygous lean littermates (ZDF fa/+) as non-hyperglycemic controls. LR-90 at 50 mg/L of drinking water was given to a subgroup of ZDF rats after the rats developed spontaneous diabetes at 13 weeks of age. At 40 weeks of age, and before killing the animals, their weight was measured; HbA1c, plasma glucose, insulin, triglycerides, cholesterol, CRP and urinary albumin and creatinine concentrations were measured. After euthanizing all animals, organs such as the kidneys, eyeballs, liver, heart, aortae and pancreas were dissected and subjected to immunohistochemical staining, RT-PCR, Western blotting and microscopy.

[2] = described in U.S. Pat. No. 6,787,566; cited from earlier work
[3] = tested on: Zucker diabetic fatty rats (ZDF, fa/fa); test: Pancreatic islet immunohistochemistry and PAMS staining (Example 2); assay type: in vivo, rat; conditions: FIG. 8
Description: FIG. 7. Immunohistochemical analysis and quantification of islet cells. ZDF GM fa/fa rats and lean control rats were fed with high fat diet for 30 weeks and received either nothing or LR-90 or LR-102 in their drinking water. Pancreatic sections from various groups of animals were stained with anti-insulin antibody or anti-glucagon antibody. A. Representative images with the overlay of the insulin (green) and glucagon (red staining). […] B. Insulin-positive β-cell-to-glucagon-ratio was also measured from these images.
FIG. 8. Periodic acid methenamine silver (PAMS) staining of pancreatic tissues. Sections from cryopreserved pancreas of each group of animals on the study were stained with PAMS and examined under light microscopy.
LR-90 at 50 mg/L of drinking water was given to a subgroup of ZDF rats after the rats developed spontaneous diabetes at 13 weeks of age. At 40 weeks of age, and before killing the animals, their weight was measured; HbA1c, plasma glucose, insulin, triglycerides, cholesterol, CRP and urinary albumin and creatinine concentrations were measured. After euthanizing all animals, organs such as the kidneys, eyeballs, liver, heart, aortae and pancreas were dissected and subjected to immunohistochemical staining, RT-PCR, Western blotting and microscopy.

Compound: CC(C)(Oc1ccc(N=Cc2ccc(C=Nc3ccc(OC(C)(C)C(=O)O)cc3)cc2)cc1)C(=O)O [LR-102, 1,4-benzene-bis[4-methyleneaminophenoxyisobutyric acid]]
- Plasma glucose ([1]; drug in drinking water): 29.8 ± 3.2 mmol/dL
- Cholesterol [1]: 290 ± 35 mg/dL
- HbA1c [1]: 2.80 ± 0.12%
- Plasma CRP [1]: 0.77 ± 0.05 mg/mL
- Plasma insulin, ELISA [1]: 0.68 ± 0.10 ng/mL
- Plasma insulin, RIA [1]: 0.65 ± 0.10 ng/mL
- Triglycerides [1]: 536 ± 63 mg/dL
- Urinary Albumin [1]: 35.4 ± 15.8 mg/24 h
- breaking AGE-protein cross-links [2]: active
- PAMS staining of pancreatic islets [3]: amelioration
